Twelve molecules from US20240034729A9, “HETEROCYCLIC COMPOUND, INTERMEDIATE, PREPARATION METHOD THEREFOR AND APPLICATION THEREOF” (WUHAN LL SCIENCE AND TECHNOLOGY DEVELOPMENT CO., LTD., priority 2018, published 2024) can be followed below.

The target of series [1] is hP2X2/3 (heterodimeric receptors formed by human purinergic P2X receptors subtype 2 and subtype 3) (Homo sapiens (Human), UniProt P56373+Q9UBL9). In words: FLIPR calcium assay, hP2X2/3 expressed in HEK293 cells (P2X2/3 receptor selectivity). It counts as cell-based. To be noted: for IC50: HEK293 cells expressing hP2X2/3, agonist BZ-ATP 5 μM, unit inferred.
Chain of hP2X2/3 (heterodimeric receptors formed by human purinergic P2X receptors subtype 2 and subtype 3) (P56373 whole entry): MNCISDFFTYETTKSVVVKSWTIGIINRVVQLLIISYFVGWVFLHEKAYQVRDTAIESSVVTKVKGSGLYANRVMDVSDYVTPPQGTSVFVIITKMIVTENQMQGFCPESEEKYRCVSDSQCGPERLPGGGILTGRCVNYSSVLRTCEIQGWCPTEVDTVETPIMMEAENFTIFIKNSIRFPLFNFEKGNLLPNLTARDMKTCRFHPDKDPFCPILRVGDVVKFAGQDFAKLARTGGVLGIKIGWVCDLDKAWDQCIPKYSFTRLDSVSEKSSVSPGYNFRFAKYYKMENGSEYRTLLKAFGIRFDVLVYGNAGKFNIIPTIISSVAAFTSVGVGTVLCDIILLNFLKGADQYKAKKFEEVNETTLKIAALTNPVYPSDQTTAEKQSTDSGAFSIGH
Chain of hP2X2/3 (heterodimeric receptors formed by human purinergic P2X receptors subtype 2 and subtype 3) (Q9UBL9 whole entry): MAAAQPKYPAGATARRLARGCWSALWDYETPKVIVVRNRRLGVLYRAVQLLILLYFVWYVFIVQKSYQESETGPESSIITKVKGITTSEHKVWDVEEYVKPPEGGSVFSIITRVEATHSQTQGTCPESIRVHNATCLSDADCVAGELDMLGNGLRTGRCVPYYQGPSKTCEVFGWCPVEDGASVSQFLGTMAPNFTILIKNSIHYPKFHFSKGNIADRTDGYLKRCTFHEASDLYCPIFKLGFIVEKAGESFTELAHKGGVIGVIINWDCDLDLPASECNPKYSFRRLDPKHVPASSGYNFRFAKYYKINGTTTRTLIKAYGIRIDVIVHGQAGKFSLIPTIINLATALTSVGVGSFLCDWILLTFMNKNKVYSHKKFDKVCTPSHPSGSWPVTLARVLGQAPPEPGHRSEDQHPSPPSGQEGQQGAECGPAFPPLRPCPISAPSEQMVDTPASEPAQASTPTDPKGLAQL
In series [2] the target is hP2X3 (human purinergic P2X receptor subtype 3) (Homo sapiens (Human), UniProt P56373). In words: FLIPR calcium assay, hP2X3 expressed in HEK293 cells. It counts as cell-based. To be noted: read-out: P2X3 IC50.
Chain of hP2X3 (human purinergic P2X receptor subtype 3) (P56373 whole entry): as the sequence (P56373 whole entry) above
Series [3] can be described thus: In vitro metabolic stability, human liver microsome. It is filed as in vitro ADME. The note with it: liver microsomes, 1 mg/mL liver microsome protein, 37° C., NA = essentially not metabolized, read-out: T1/2 in human liver microsome. The protocol:
(§1) The in vitro metabolic stability of the compounds disclosed herein was determined through incubation of liver microsomes of various species. […] At each time point, 100 μL of the reaction mixture was added into a centrifuge tube containing 400 μL of internal standard working solution (containing a 200 ng/mL solution of dexamethasone, diclofenac, tolbutamide and labetalol in acetonitrile) precooled at 0° C. so as to terminate the reaction, and the mixture was then centrifuged at 10,000 g for 10 min at 4° C. The supernatant was collected for LC-MS assay so as to obtain the values of in vitro metabolic half-life of the test compounds in liver microsomes of various species.
A general note: Liver microsomes are vesicles of endoplasmic reticulum, rich in cytochrome P450 enzymes.

The nature of series [4]: In vitro metabolic stability, guinea pig liver microsome. It is filed as in vitro ADME. The note with it: liver microsomes, 1 mg/mL liver microsome protein, 37° C., NA = essentially not metabolized, read-out: T1/2 in guinea pig liver microsome. Here is the method:
The in vitro metabolic stability of the compounds disclosed herein was determined through incubation of liver microsomes of various species. A proper amount of test compound was added into a liver microsome reaction system (1 mg/mL liver microsome protein, 25 U/mL glucose-6 phosphate dehydrogenase, 1 mM NADP, 6 mM D-glucose 6-phosphate and 5 mM MgCl2), and then the mixture was incubated in a water bath kettle at 37° C. to start the reaction. At each time point, 100 μL of the reaction mixture was added into a centrifuge tube containing 400 μL of internal standard working solution (containing a 200 ng/mL solution of dexamethasone, diclofenac, tolbutamide and labetalol in acetonitrile) precooled at 0° C. so as to terminate the reaction, and the mixture was then centrifuged at 10,000 g for 10 min at 4° C. The supernatant was collected for LC-MS assay so as to obtain the values of in vitro metabolic half-life of the test compounds in liver microsomes of various species.

Series [5] can be described thus: In vitro cytotoxicity assay, CCK-8 method. It is filed as cell-based. To be noted: human, HepG2 cells. Here is the method: In vitro cytotoxicity assay for the compounds disclosed herein was performed in HepG2 cells using the CCK-8 method. HepG2 cells (Beina Bio) in the logarithmic growth phase were collected, the concentration of cell suspension was adjusted, and then the cells were plated on a 96-well cell culture plate at 50,000 cells/well. The cells were then incubated overnight in a cell incubator of 5% […] at 37° C., and after 80-90% cell confluence was achieved, test compounds or vehicle (DMSO) at various concentration gradients were added after medium change. The plate was incubated in a cell incubator of 5% […] at 37° C. for 48 h. After the treatment, the medium in the plate was discarded. The plate was washed twice with PBS, added with CCK-8 working solution (Beyotime) at 100 μL per well, and then incubated at 37° C. for 1.5 h away from light. Absorbance at OD450nm was measured for each well on a microplate reader, and CC50 value of each compound was analyzed and calculated.
For orientation: Formazan colour is commonly taken as a measure of viable cells.

Series [6] is described as follows: In vitro metabolic stability, rat liver microsome. It is filed as in vitro ADME. To be noted: liver microsomes, 1 mg/mL liver microsome protein, 37° C., NA = essentially not metabolized, read-out: T1/2 in rat liver microsome. Here is the method:
as §1

Where two headings read alike, the source gives them in different places.

The term IC50 denotes the concentration needed to halve the response being measured. For orientation: CC50 means the concentration that lowers cell viability or growth by half. Higher therefore signals lower toxicity to the cells.

`COC(=O)Nc1cc(F)c(-c2nc3cc(C)ccn3c2C[C@H]2CN(C(=O)OC)CCO2)c(F)c1` [Compound 3, methyl (S)-2-((2-(2,6-difluoro-4-(methoxycarbonylamino)phenyl)-7-methylimidazo[1,2-a]pyridin-3-yl)-methyl)morpholine-4-carboxylate]: the Folds of selectivity entry in series [1] is listed as “A (key: A: folds of selectivity >1000; B: 200< folds of selectivity ≤1000; C: folds of selectivity ≤200)”. Also, the figures for the IC50 in series [1] and in series [2] were over 60 µM and 0.01 to 0.05 µM, respectively. For the same molecule, the results for the half-life in series [3], in series [4] and in series [6] were 4.34 h, 0.842 h and 0.479 h, respectively. The same molecule came in with a CC50 at 48 h in series [5] of 59.3 µM.
Take `COC(=O)N1CCO[C@@H](Cc2c(-c3c(F)cc(-c4ccc[nH]4)cc3F)nc3cc(C)ccn23)C1` [Compound 4, methyl (S)-2-((2-(2,6-difluoro-4-(1H-pyrrol-2-yl)phenyl)-7-methylimidazo[1,2-a]pyridin-3-yl)methyl)morpholine-4-carboxylate]: in series [1], the Folds of selectivity entry is on record as “A (key: A: folds of selectivity >1000; B: 200< folds of selectivity ≤1000; C: folds of selectivity ≤200)”. Moreover, the results for the IC50 in series [1] and in series [2] were 14.3 µM and under 0.01 µM, respectively. The half-life stood at 1.02 h in series [3], 0.073 h in series [4] and 0.0818 h in series [6]. This molecule came in with a cytotoxic concentration (CC50) at 48 h in series [5] of 13.2 µM.
For the molecule `COC(=O)N1CCO[C@@H](Cc2c(-c3c(F)cc(-c4cc[nH]n4)cc3F)nc3cc(C)ccn23)C1` [Compound 15, methyl (S)-2-((2-(2,6-difluoro-4-(1H-pyrazol-3-yl)phenyl)-7-methylimidazo[1,2-a]pyridin-3-yl)methyl)morpholine-4-carboxylate], the Folds of selectivity result in series [1] is “B (key: A: folds of selectivity >1000; B: 200< folds of selectivity ≤1000; C: folds of selectivity ≤200)”. Besides, the results for the IC50 in series [1] and in series [2] were 21.6 µM and under 0.01 µM, respectively. Also, the figures for the half-life in series [3], in series [4] and in series [6] were 3.18 h, 0.275 h and 0.423 h, respectively. In series [5], the midpoint of cytotoxicity, the CC50 at 48 h, lay at 52.6 µM.
Regarding `COC(=O)N1CCO[C@@H](Cc2c(-c3c(F)cc(-c4ccccn4)cc3F)nc3cc(C)ccn23)C1` [Compound 17, methyl (S)-2-((2-(2,6-difluoro-4-(pyridin-2-yl)phenyl)-7-methylimidazo[1,2-a]pyridin-3-yl)methyl)morpholine-4-carboxylate], the Folds of selectivity result in series [1] is given as “B (key: A: folds of selectivity >1000; B: 200< folds of selectivity ≤1000; C: folds of selectivity ≤200)”. The IC50 was 29.8 µM in series [1] and 0.01 to 0.05 µM in series [2]. Moreover, the half-life in series [3] amounted to 16.6 h; in series [4], 0.143 h; in series [6], 0.323 h. Further, in series [5], the midpoint of cytotoxicity, the CC50 at 48 h, lay at 51 µM.
For the molecule `COC(=O)N1CCO[C@@H](Cc2c(-c3c(F)cc(N4C(=O)CCC4=O)cc3F)nc3cc(C)ccn23)C1` [Compound 26, methyl (S)-2-((2-(4-(2,5-dioxopyrrolidin-1-yl)-2,6-difluorophenyl)-7-methylimidazo[1,2-a]pyridin-3-yl)methyl)morpholine-4-carboxylate], the 50% inhibitory concentration (IC50) in series [2] (HEK293 cells expressing hP2X3, agonist BZ-ATP 2.5 μM, class symbols) is 0.05 to 0.2 µM. Also, the values for the half-life in series [3], in series [4] and in series [6] were 4.22 h, 2.13 h and 1.35 h, respectively. The same molecule registered a CC50 at 48 h in series [5] of over 100 µM.
With `COC(=O)N1CCO[C@@H](Cc2c(-c3cnc(-n4cccn4)cc3C)nc3cc(C)ccn23)C1` [Compound 168, methyl (S)-2-((7-methyl-2-(4-methyl-6-(1H-pyrazol-1-yl)pyridin-3-yl)imidazo[1,2-a]pyridin-3-yl)methyl)morpholine-4-carboxylate], in series [1], the Folds of selectivity entry was “A (key: A: folds of selectivity >1000; B: 200< folds of selectivity ≤1000; C: folds of selectivity ≤200)”. For the same molecule, the figures for the IC50 in series [1] and in series [2] were over 60 µM and 0.01 to 0.05 µM, respectively. For the same molecule, the half-life turned out to be 8.71 h in series [3], 0.487 h in series [4] and 0.96 h in series [6]. The molecule also had a CC50 at 48 h in series [5] of over 100 µM.
On to `COC(=O)N1CCO[C@@H](Cc2c(-c3c(F)cc(N4CC=CC4=O)cc3F)nc3cc(C)ccn23)C1` [Compound 169, methyl (S)-2-((2-(2,6-difluoro-4-(2-carbonyl-2,5-dihydro-1H-pyrrol-1-yl)phenyl)-7-methylimidazo[1,2-a]pyridin-3-yl)methyl)morpholine-4-carboxylate], for which, in series [1], the Folds of selectivity result is “A (key: A: folds of selectivity >1000; B: 200< folds of selectivity ≤1000; C: folds of selectivity ≤200)”. In addition, in series [1], the 50% inhibitory concentration (IC50) is over 60 µM. Also, the half-life is 13.8 h in series [3], 2.74 h in series [4] and 0.591 h in series [6]. Besides, the CC50 at 48 h in series [5] was over 100 µM.
`COC(=O)N1CCO[C@@H](Cc2c(-c3c(F)cc(S(N)(=O)=O)cc3F)nc3cc(C)ccn23)C1` [Compound 171, methyl (S)-2-((2-(2,6-difluoro-4-sulfamoylphenyl)-7-methylimidazo[1,2-a]pyridin-3-yl)methyl)morpholine-4-carboxylate]: the Folds of selectivity in series [1] is 45975. Also, the IC50 in series [1] came to 36.8 µM; in series [2], 0.0021 µM. For the same molecule, the values for the half-life in series [3], in series [4] and in series [6] were 8.72 h, 2.33 h and 0.141 h, respectively. In series [5], this molecule returned a CC50 at 48 h of 200 µM.
On to `COC(=O)N1CCO[C@@H](Cc2c(-c3ccc(S(N)(=O)=O)cc3Cl)nc3cc(C)ccn23)C1` [Compound 176, methyl (S)-2-((2-(2-chloro-4-sulfamoylphenyl)-7-methylimidazo[1,2-a]pyridin-3-yl)methyl)morpholine-4-carboxylate], for which the IC50 in series [2] was 0.0075 µM. Also, the half-life in series [3] amounted to 3.93 h; in series [4], 1.02 h; in series [6] it was 0.0602 h. In series [5], this molecule showed a CC50 at 48 h of over 200 µM.
`COC(=O)N1CCO[C@@H](Cc2c(-c3cc(F)c(S(N)(=O)=O)cc3Cl)nc3cc(Cl)ccn23)C1` [Compound 181, methyl (S)-2-((7-chloro-2-(2-chloro-5-fluoro-4-sulfamoylphenyl)imidazo[1,2-a]pyridin-3-yl)methyl)morpholine-4-carboxylate]: the IC50 in series [2] amounted to 0.0018 µM. Moreover, the figures for the half-life in series [3], in series [4] and in series [6] were 23.3 h, 3.91 h and 3.13 h, respectively. The CC50 at 48 h in series [5] was 138 µM.
For `COC(=O)N1CCO[C@@H](Cc2c(-c3c(F)cc(S(N)(=O)=O)cc3F)nc3cc(C)c(F)cn23)C1` [Compound 182, methyl (S)-2-((2-(2,6-difluoro-4-sulfamoylphenyl)-6-fluoro-7-methylimidazo[1,2-a]pyridin-3-yl)methyl)morpholine-4-carboxylate], in that order: 0.0035 µM, 3.62 h, 1.02 h, 0.182 h and over 200 µM.
For `COC(=O)N1CCO[C@@H](Cc2c(-c3ccc(S(N)(=O)=O)cc3C)nc3cc(C)ccn23)C1` [Compound 184, methyl (S)-2-((7-methyl-2-(2-methyl-4-sulfamoylphenyl)imidazo[1,2-a]pyridin-3-yl)methyl)morpholine-4-carboxylate], in that order: 0.0056 µM, 406 h, 2.89 h, 0.0943 h and over 200 µM.
